What all share (assay): DTP human tumour cell line panel, 48 h
In test [1] the test system is MOLT-4 leukemia.
For test [2], the system named is NCI-H226 lung.
Test [3] deals with CCRF-CEM leukemia.
In test [4] the test system is UO-31 renal.
Test [5] has as its system HOP-92 NSCLC.
In test [6] the test system is 786-0 renal.
Test [7] has as its system MDA-N.
Test [8] has as its system NCI-H23 lung.
Test [9] has as its system SNB-19 CNS.
Test [10] deals with EKVX NSCLC.
In test [11] the test system is IGROV1 ovarian.
In test [12] the test system is DU-145 prostate.
The subject of test [13] is HCT-15 colon.

Values joined by “and” are separate entries in the source; they are usually repeats but may differ in a detail not shown here. Equal values may be shown once.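 96-well plates; 48 h exposure; 5 concentrations. Endpoints by linear interpolation between flanking doses. Not reached: highest tested concentration assigned. At the GI50, growth is halved. Definition used: TGI = concentration required for complete inhibition of growth.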

Turning to `Fc1ccc(C(OCCN2CCC3CCC(C2)N3CCCc2ccccc2)c2ccc(F)cc2)cc1` (configuration not stated), the TGI (in general, the concentration giving total growth inhibition) was 7.86 µM in test [1]; 15.1 µM in [2]; 11.3 µM in test [3]; 16.3 µM in test [4]; 18.9 µM in test [5]; 5.57 µM in [6]. Further, the total growth inhibition concentration (TGI) in [7] is 11.3 µM; in test [8] it was 15 µM; in test [9], 22.3 µM; in test [10], 15.2 µM; in [11], 17.7 µM; in test [12] it was 22.8 µM. In [13], this compound yielded a TGI of 14.5 µM.
For `CN1CC=C(OP(=O)(NCc2ccccc2)N(CCCl)CCCl)CC1` (configuration not stated), the TGI in [1], in [2], in test [3], in test [4], in [5] and in test [6] was more than 100 µM in each case. Besides, the TGI in [7], in test [8], in [9], in test [10], in [11] and in [12] was more than 100 µM in each case. In [13], this compound had a TGI of more than 100 µM.
For `CC(=O)Nc1c(C)cc(OCC(=O)O)cc1C`, the TGI in [2], in test [3], in test [4], in [5], in [6] and in test [7] was more than 100 µM each time. Moreover, the concentration for total growth inhibition (TGI) in test [8], in test [9], in test [10], in [11], in test [12] and in [13] was more than 100 µM each time.
On to `CN(C)c1ccc(C2CC(=O)CC(c3ccc(N(C)C)cc3)C23C(=O)NC(=O)NC3=O)cc1` (configuration not stated), for which the total growth inhibition concentration (TGI) in test [1] was more than 25 µM; in [2], more than 25 µM; in test [3], more than 25 µM; in [4], more than 25 µM; in test [5], 19 µM; in [6], more than 25 µM. Besides, the TGI in test [7], in test [8], in [9], in test [10], in test [11] and in [12] was more than 25 µM each time. The compound also displayed a total growth inhibition concentration (TGI) in [13] of more than 25 µM.
With `CN(C)c1ccc(C(C#N)N2CCCN(C(C#N)c3ccc(N(C)C)cc3)C2c2ccc(N(C)C)cc2)cc1` (configuration not stated), the TGI in test [1], in [2], in test [3], in [4], in [5] and in [6] was more than 100 µM in each case. In addition, the TGI in [7], in [8], in test [9], in test [10], in test [11] and in test [12] was more than 100 µM in each case. This compound also registered a TGI in test [13] of more than 100 µM.
Take `COc1ccc(CSCc2cc(OC)c(OC)c(OC)c2)cc1`: the TGI in [1] is more than 100 µM; in test [2] it was more than 100 µM; in test [3], more than 100 µM; in [4], more than 100 µM; in test [5], more than 86.6 µM; in [6], more than 100 µM. Moreover, the TGI in test [7] is more than 100 µM; in test [8], more than 100 µM; in [9], more than 100 µM; in test [10] it was more than 31.6 µM; in [11], more than 100 µM; in [12], more than 100 µM. Also, the TGI in [13] was more than 100 µM.
Regarding `Cc1ccc2c(ccc3c[n+]4ccccc4c(C)c32)c1`, the TGI is more than 100 µM in [1]; 5.71 µM in test [2]; more than 100 µM in test [3]; more than 100 µM in [4]; 22.8 µM in test [5]; 19.1 µM in [6]. Besides, the TGI was more than 100 µM in test [7]; 10.9 µM in test [8]; 12.8 µM in [9]; more than 100 µM in [10]; 34.7 µM in [11]; 26.6 µM in test [12]. In [13], the TGI was more than 100 µM.
For the compound `O=C1C(NCCc2cc(Br)c(O)c(Br)c2)=CC(=O)c2ncccc21`, the TGI was 24.1 µM in test [1]; 8.52 µM in test [2]; 23.5 µM in test [3]; 41.6 µM in test [4]; 47.5 µM in test [5]; 34.4 µM in test [6]. The concentration for total growth inhibition (TGI) in [7] stood at 3.34 µM; in test [8] it was 2.98 µM; in test [9] it was 27.5 µM; in test [10] it was 30.7 µM; in test [11], 10.3 µM; in test [12], 12 µM. In test [13], this compound came in with a TGI of 31.9 µM.
Take `CCOP(=O)(CS(C)=O)O[C@@H]1C[C@H](C)CC[C@H]1C(C)C` (some centres not stated): the concentration for total growth inhibition (TGI) in test [1] was more than 100 µM; in [2], 12.2 µM; in test [3], 11.5 µM; in test [4] it was 7.15 µM; in test [5], 16.9 µM; in test [6], 6.35 µM. The TGI in [7] worked out at 8.97 µM; in test [8], 17.6 µM; in test [9], 25.7 µM; in test [10] it was 11.2 µM; in [11] it was 10.3 µM; in [12], 26.2 µM. Besides, the TGI in [13] came out at 7.81 µM.
As to `CCCCCCN(C(=O)Oc1ccccc1)C(C#N)c1ccccc1` (configuration not stated), the TGI in [1], in test [2], in test [3], in test [4], in test [5] and in test [6] was more than 100 µM in each case. Also, the TGI in [7], in test [8], in [9], in [10], in [11] and in [12] was more than 100 µM each time. Also, in test [13], the TGI is more than 100 µM.
Take `Cn1c(=O)nc2n(CCO)c(-c3ccccc3)c(-c3ccccc3)nc-2c1=O`: the TGI in [1], in test [2], in [3], in test [4], in test [5] and in test [6] was more than 100 µM in each case. Besides, the TGI in test [7], in test [8], in test [9], in test [10], in test [11] and in test [12] was more than 100 µM in each case. In addition, the TGI in test [13] is more than 100 µM.
As for `CN(CCO)CC(=O)CC(O)(C(F)(F)F)C(F)(F)F`, the TGI in test [1] was more than 100 µM; in [2], more than 100 µM; in [3] it was 91.9 µM; in test [4] it was more than 100 µM; in test [5], 54.2 µM; in test [6], more than 100 µM. Also, the TGI in test [7] is more than 100 µM; in [8], 60.2 µM; in test [9], more than 100 µM; in test [10], more than 100 µM; in test [11] it was more than 100 µM; in test [12], more than 100 µM. For the same compound, the TGI in test [13] was more than 100 µM.
Regarding `N[C@@H]1C[C@H](N)c2c(Cl)sc(Cl)c21`, the TGI in test [1], in test [2], in [3], in [4], in test [5] and in test [6] was more than 100 µM each time. Further, the TGI in test [7], in [8], in [9], in [10], in test [11] and in [12] was more than 100 µM each time. The concentration for total growth inhibition (TGI) in [13] was more than 100 µM.
With `CCOc1ccc(C2c3[nH]c4ccccc4c3CCN2C(=O)c2cccs2)cc1` (configuration not stated), the TGI in test [1] is more than 100 µM; in test [2], 43.4 µM; in test [3] it was more than 100 µM; in test [4] it was more than 100 µM; in test [5], more than 100 µM; in test [6] it was more than 100 µM. The TGI in [7], in [8], in test [9], in test [10], in test [11] and in test [12] was more than 100 µM throughout. Also, in test [13], the TGI was more than 100 µM.
`O=C(CNC(=O)OCc1ccccc1)NCCCCC(NC(=O)OCc1ccccc1)C(=O)O` (configuration not stated): the TGI in test [1], in [2], in test [3], in test [4], in test [5] and in test [6] was more than 100 µM throughout. Also, the TGI in test [7], in test [8], in [9], in test [10], in [11] and in test [12] was more than 100 µM each time. Besides, in test [13], the concentration for total growth inhibition (TGI) was more than 100 µM.
On to `CCn1c(=O)c2c(=O)[nH][nH]c2c2ccccc21`, for which the total growth inhibition concentration (TGI) in test [1], in test [2], in test [3], in [4], in [5] and in [6] was more than 100 µM in each case. Also, the TGI in test [7], in [8], in test [9], in test [10], in test [11] and in test [12] was more than 100 µM each time. The TGI in [13] is more than 100 µM.
Regarding `Cc1ccc2c(c1)C(C1Cc3c(C)cccc3C1=O)OC2=O` (configuration not stated), the TGI in test [1], in test [2], in [3], in [4], in test [5] and in test [6] was more than 100 µM in each case. For the same compound, the concentration for total growth inhibition (TGI) in [7], in test [8], in [9], in test [10], in [11] and in [12] was more than 100 µM each time. In test [13], this compound had a TGI of more than 100 µM.
As to `N#Cc1cnn2c1n[n+]([O-])c1ccc(Cl)cc12`, the total growth inhibition concentration (TGI) in test [1] is 17.6 µM; in test [2] it was 49.7 µM; in [3] it was 4.34 µM; in [4], 21.7 µM; in [5] it was 5.21 µM; in test [6], more than 100 µM. For the same compound, the TGI in test [7] came to 22.7 µM; in test [8], 12.2 µM; in test [9] it was 10.1 µM; in test [10] it was 7.24 µM; in test [11] it was 8.53 µM; in [12], 28.5 µM. In addition, the TGI in test [13] was 4.36 µM.
In the case of `CC(=NNC(=S)Nc1ccccc1C)c1cccc(C(C)=NNC(=S)Nc2ccccc2C)n1`, the TGI in test [1], in test [2], in test [3], in test [4], in test [5] and in test [6] was more than 100 µM each time. The TGI in [7], in test [8], in test [9], in test [10], in [11] and in test [12] was more than 100 µM in each case. The TGI in test [13] was more than 100 µM.
With `O=C1/C(=C/c2cccc([N+](=O)[O-])c2)CCCc2ccccc21`, the total growth inhibition concentration (TGI) in test [1] was 34 µM; in test [2] it was 33.2 µM; in test [3], 10.5 µM; in test [4] it was 30 µM; in test [5], 29.6 µM; in test [6] it was 26.6 µM. Also, the concentration for total growth inhibition (TGI) stood at 22.7 µM in [7]; 31.4 µM in [8]; 28.5 µM in test [9]; 32.5 µM in test [10]; 25.8 µM in test [11]; 28.2 µM in [12]. Further, in test [13], the TGI was determined as 23 µM.
Regarding `COC(=O)/C=C/c1cc(OC)c2c(c1)C(C(=O)OC)C(c1ccc(OC)c(OC)c1)O2` (configuration not stated), the TGI was more than 100 µM in test [1]; > 100 µM and 25.6 µM in test [2]; more than 100 µM in test [3]; more than 100 µM in test [4]; more than 100 µM in test [5]; more than 100 µM in test [6]. The TGI in test [7], in [8], in test [9], in test [10], in [11] and in test [12] was more than 100 µM each time. In addition, the TGI in [13] was more than 100 µM. For the same compound, the GI50 (usually the concentration at which growth is held to half of that of the control) is 32.1 µM and 8.62 µM in test [4]; 30.6 µM in test [7]; more than 100 µM in test [8]; 39.3 µM and 5.12 µM in [10]; more than 100 µM in [12].

The values above are taken from PubChem BioAssay (NCI).
